The test system of assay [1] is Jun.GHR (ZipGHR: cJunzip.hGHR, cJun SEQ ID NO: 9, hGHR SEQ ID NO: 20). In words: Frequency of pSTAT5+ cells after ruxolitinib treatment, T cells expressing Jun.GHR ZipR. The format is cell-based. The following applies: role: inhibitor; STAT5 phosphorylation (pSTAT5+ cells), human T cells, 48-hour treatment. An excerpt: (§1) FIGS. 2A-2F show Jun leucine zipper-based homodimers activating STAT5 resulting in improved T cell viability, and that they are inhibited by ruxolitinib. (FIGS. 2A and 2B) pSTAT5 geometric mean fluorescence intensity (FIG. 2A) or percent positive (FIG. 2B) in Jun ZipR+ cells (N=4 biological replicates, One-way ANOVA, ** p<0.01, *** p<0.001, **** p<0.0001). (FIGS. 2C-2E) Frequency of pSTAT5+ cells following 48-hour treatment with indicated concentrations of ruxolitinib in vitro (N=3 biological replicates). (FIG. 2F) Frequency of dead cells (Annexin V+ Dead+), apoptotic cells (Annexin V+ Dead-), necrotic cells (Annexin V− Dead+), and live cells (Annexin V− Dead-) after 7 days of cytokine starvation without or with treatment of 5 M ruxolitinib in vitro (N=2 biological replicates, two-way ANOVA, **** p<0.0001 on Live cell population)
(§2) As a potential safety switch for the constitutively active homodimeric ZipRs, T cells expressing Jun.EpoR ZipRs or the Jun. GHR ZipRs were treated with increasing concentrations of ruxolitinib, an FDA-approved JAK1/2 inhibitor. All ZipRs were inhibited by ruxolitinib (FIGS. 2C-2E) as judged by their ability to phosphorylate STAT5.
(§3) Generation of ZipR transduced T cells. […]

Assay [2] concerns Jun.EpoR.del3 (ZipEpoR.del3: cJunzip.hEpoRmut.del3, cJun SEQ ID NO: 9, hEpoRmut SEQ ID NO: 16; 3 amino acid TM domain deletion). In words: Frequency of pSTAT5+ cells after ruxolitinib treatment, T cells expressing Jun.EpoR.del3 ZipR. The assay is classed as cell-based. The following applies: role: inhibitor; STAT5 phosphorylation (pSTAT5+ cells), human T cells, 48-hour treatment.
Source text: as §1
(§4) The following constructs were generated and tested: • i) Jun.IL-2Rβ chain constructs with 0 to 6 alanine insertions to interrogate all potential intracellular orientations; • ii) Jun.EpoR constructs with 0, 1, 3, or 5 amino acid TM domain deletions to interrogate receptors with 0, 100, 300, or 500 degrees of rotation; • iii) Jun. GHR; and • iv) Jun. 18B.MyD88 fused to EpoR or GHR (Jun.MyD88.EpoR or Jun.MyD88.GHR).
(§5) As a potential safety switch for the constitutively active homodimeric ZipRs, T cells expressing Jun.EpoR ZipRs or the Jun. […]

In assay [3] the test system is Jun.EpoR (ZipEpoR: cJunzip.hEpoRmut, cJun SEQ ID NO: 9, hEpoRmut SEQ ID NO: 10). As to the kind of experiment: Frequency of pSTAT5+ cells after ruxolitinib treatment, T cells expressing Jun.EpoR ZipR. The assay is classed as cell-based. The following applies: role: inhibitor; STAT5 phosphorylation (pSTAT5+ cells), human T cells, 48-hour treatment.
Source text: as §1, §2, §3

The subject of assay [4] is Jun.EpoR.del5 (ZipEpoR.del5: cJunzip.hEpoRmut.del5, cJun SEQ ID NO: 9, hEpoRmut SEQ ID NO: 18; 5 amino acid TM domain deletion). In words: Frequency of pSTAT5+ cells after ruxolitinib treatment, T cells expressing Jun.EpoR.del5 ZipR. The assay is classed as cell-based. The following applies: role: inhibitor; STAT5 phosphorylation (pSTAT5+ cells), human T cells, 48-hour treatment.
Source text: as §1, §4, §5

Assay [5] deals with Jun.EpoR- or Jun.GHR ZipRs expressing human T cells. In words: T cell survival after 7-day cytokine starvation with concurrent ruxolitinib treatment. The format is cell-based. The following applies: role: inhibitor, 7 days without cytokines, printed as 5 M in FIG. 2F legend.
Source text: as §1
In addition to activation of STAT5, the ability for Jun ZipRs to improve T cell function was determined. Jun.EpoR- or Jun.GHR ZipRs expressing human T cells were cultured without cytokines for 7 days in vitro before quantifying the frequency of live, dead, and dying cells. ZipR signaling allowed cells to survive 7-day cytokine starvation, which was abrogated by concurrent treatment with ruxolitinib (FIG. 2F). […]
Cytokine starvation. […] To quantify apoptosis, cells were labeled with annexin V (BD Biosciences) and eBioscience Fixable viability dye (Invitrogen).

In assay [6] the test system is Jun.EpoR.del1 (ZipEpoR.del1: cJunzip.hEpoRmut.del1, cJun SEQ ID NO: 9, hEpoRmut SEQ ID NO: 14; 1 amino acid TM domain deletion). As to the kind of experiment: Frequency of pSTAT5+ cells after ruxolitinib treatment, T cells expressing Jun.EpoR.del1 ZipR. The assay is classed as cell-based. The settings on record: role: inhibitor; STAT5 phosphorylation (pSTAT5+ cells), human T cells, 48-hour treatment.
Source text: as §1, §4, §5

The subject of assay [7] is Jun.EpoR ZipRs or the Jun.GHR ZipRs. In words: Ability of ZipRs to phosphorylate STAT5 under ruxolitinib treatment, T cells expressing Jun.EpoR ZipRs or Jun.GHR ZipR. The format is cell-based, human. The settings on record: role: inhibitor; increasing concentrations of ruxolitinib.
Source text: as §1, §2, §3

Broadly, the EC50 is the concentration giving half of the maximal effect. Read a low EC50 as greater potency. On to `N#CC[C@H](C1CCCC1)n1cc(-c2ncnc3[nH]ccc23)cn1` [Ruxolitinib, ruxolitinib], for which the EC50 in assay [1] came out at 0.0063 µM; in assay [2], 0.0572 µM; in assay [3] it was 0.668 µM; in assay [4] it was 0.0942 µM; in assay [6], 0.483 µM. Further, the “survival of 7-day cytokine starvation by ZipR signaling” value in assay [5] is reported as “abrogated”. The “inhibition of ZipRs as judged by their ability to phosphorylate STAT5” value in assay [7] is recorded as “inhibited”.

The values are drawn from patent US20260306631A1, “CHIMERIC RECEPTORS” (St. Jude Children's Research Hospital, Inc., priority 2023, published 2026).
